From patent publication US9586928B2 (The Scripps Research Institute, priority 2011, dated 2017)

What was measured:
LXR = target: T1, LXR (Homo sapiens, UniProt Q13133); assay: Gal4-LXRα / UAS luciferase cotransfection assay; type: cell-based; conditions: 10 μM
T1 sequence (Q13133 209-447 limits assumed): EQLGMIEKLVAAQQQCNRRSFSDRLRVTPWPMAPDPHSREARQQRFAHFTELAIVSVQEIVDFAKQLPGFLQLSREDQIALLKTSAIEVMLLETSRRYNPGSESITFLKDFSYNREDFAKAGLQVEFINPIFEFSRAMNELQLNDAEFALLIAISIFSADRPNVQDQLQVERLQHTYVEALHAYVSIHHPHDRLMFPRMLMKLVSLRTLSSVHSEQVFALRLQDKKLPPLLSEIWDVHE

RORα = target: T2, RORα (Homo sapiens, UniProt P35398); assay: Gal4-RORα LBD / UAS luciferase cotransfection assay; type: cell-based; conditions: 10 μM
T2 construct: expressed in transfected cells; host or cells: HEK293T
T2 sequence (P35398 272-510 limits assumed): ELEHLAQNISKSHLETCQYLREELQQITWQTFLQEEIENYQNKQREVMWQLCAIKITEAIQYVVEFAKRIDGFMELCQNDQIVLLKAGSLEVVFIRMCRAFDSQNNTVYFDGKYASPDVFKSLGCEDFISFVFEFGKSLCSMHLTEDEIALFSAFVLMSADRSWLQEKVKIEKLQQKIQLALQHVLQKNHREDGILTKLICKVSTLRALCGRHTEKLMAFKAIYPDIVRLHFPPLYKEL

VP16 = assay: Gal4 DBD-VP16 / UAS luciferase control assay; type: cell-based; conditions: 10 μM
Procedure: (§1) The cells were treated with either DMSO or various compounds as indicated four hours after replating. Following additional 20 hour incubation, luciferase levels were assayed by one-step addition of 20 μL BriteLite (Perkin Elmer) and read using an Envision multilabel plate reader (Perkin Elmer).

GST-RORγ = target: T3, GST-RORγ (Homo sapiens, UniProt P51449); assay: RORγ scintillation proximity (SPA) radioligand binding assay, displacement of [3H]-T0901317; conditions: for IC50: displacement of 5 nM [3H]-T0901317 from GST-RORγ; for remaining activity at 10 µM: 10 μM compound, read-out: RORγ SPA % bound = % radiolabel bound
T3 construct: 1 μg of GST-RORγ-LBD, 5 nM of [3H]T1317 as radioligand
T3 sequence (P51449 269-508 limits assumed): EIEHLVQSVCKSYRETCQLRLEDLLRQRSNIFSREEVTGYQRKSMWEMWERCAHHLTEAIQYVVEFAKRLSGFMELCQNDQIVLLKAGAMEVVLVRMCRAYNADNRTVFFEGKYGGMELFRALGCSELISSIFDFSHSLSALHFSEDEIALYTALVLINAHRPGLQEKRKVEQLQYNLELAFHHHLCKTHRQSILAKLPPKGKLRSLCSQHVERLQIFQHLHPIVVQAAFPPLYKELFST

RORγ = target: T4, RORγ (Homo sapiens, UniProt P51449); assay: Gal4-RORγ LBD / UAS luciferase cotransfection assay; type: cell-based; conditions: for RORγ repression, fold change over DMSO: 10 μM
T4 construct: expressed in transfected cells; host or cells: HEK293T
T4 sequence (P51449 269-508 limits assumed): T3 sequence (P51449 269-508 limits assumed)
Procedure: as §1
Cotransfection assays were performed as previously described in HEK293 cells (Gal4 cotransfection assay or IL-17 luciferase reporter)[8]. HEK293 and the mouse lymphoma EL4 (ATCC) cells were maintained in DMEM supplemented with 10% FBS plus antibiotics (penicillin and streptomycin; Invitrogen).

With `O=C(c1ccc(-c2ccc(C(O)(C(F)(F)F)C(F)(F)F)cc2)cc1)N1CCN(Cc2ccncc2)CC1` [Compound 100, (4′-(1,1,1,3,3,3-Hexafluoro-2-hydroxypropan-2-yl)-[1,1′-biphenyl]-4-yl)(4-(pyridin-4-ylmethyl)piperazin-1-yl)methanone] the “LXR activation, fold change over DMSO” value (LXR) was 0.8 fold change over DMSO, the “RORα repression, fold change over DMSO” value (RORα) was 0.6 fold change over DMSO and the “VP16 repression, fold change over DMSO” value (VP16) was 0.4 fold change over DMSO. The IC50 (GST-RORγ) was 1.7 µM and the “RORγ repression, fold change over DMSO” value (RORγ) was 0.1 fold change over DMSO.
For `Cc1cc(-c2ccc(C(O)(C(F)(F)F)C(F)(F)F)cc2)ccc1CN1CCN(Cc2ccncc2)CC1` [Compound 94, 1,1,1,3,3,3-Hexafluoro-2-(3′-methyl-4′-((4-(pyridin-4-ylmethyl)piperazin-1-yl)methyl)-[1,1′-biphenyl]-4-yl)propan-2-ol], the “LXR activation, fold change over DMSO” value (LXR) was 0.8 fold change over DMSO, the “RORα repression, fold change over DMSO” value (RORα) was 0.5 fold change over DMSO and the “VP16 repression, fold change over DMSO” value (VP16) was 0.8 fold change over DMSO. The IC50 (GST-RORγ) was 0.23 µM and the “RORγ repression, fold change over DMSO” value (RORγ) was 0.05 fold change over DMSO.
With `OC(c1ccc(-c2ccc(CN3CCC(Nc4ccncc4)CC3)cc2)cc1)(C(F)(F)F)C(F)(F)F` [Compound 104, 1,1,1,3,3,3-Hexafluoro-2-(4′-((4-(pyridin-4-ylamino)piperidin-1-yl)methyl)-[1,1′-biphenyl]-4-yl)propan-2-ol] the “LXR activation, fold change over DMSO” value (LXR) was 1.1 fold change over DMSO, the “RORα repression, fold change over DMSO” value (RORα) was 0.9 fold change over DMSO and the “VP16 repression, fold change over DMSO” value (VP16) was 0.4 fold change over DMSO. The remaining activity at 10 µM (GST-RORγ) was 20% and the “RORγ repression, fold change over DMSO” value (RORγ) was 0.1 fold change over DMSO.
With `OC(c1ccc(-c2ccc(CN3CCN(Cc4ccncc4)CC3)cc2)cc1)(C(F)(F)F)C(F)(F)F` [Compound 1, 1,1,1,3,3,3-Hexafluoro-2-(4′-((4-(pyridin-4-ylmethyl)piperazin-1-yl)methyl)-[1,1′-biphenyl]-4-yl)propan-2-ol] the “LXR activation, fold change over DMSO” value (LXR) was 1 fold change over DMSO, the “RORα repression, fold change over DMSO” value (RORα) was 1 fold change over DMSO and the “VP16 repression, fold change over DMSO” value (VP16) was 1 fold change over DMSO. For the same molecule, the IC50 (GST-RORγ) was 0.15 µM and the IC50 (RORγ; Gal4 cotransfection) was 0.4 µM.
For `OC(c1ccc(-c2ccc(CN3CCN(Cc4ccncc4Br)CC3)cc2)cc1)(C(F)(F)F)C(F)(F)F` [Compound 59, 2-(4′-((4-((3-Bromopyridin-4-yl)methyl)piperazin-1-yl)methyl)-[1,1′-biphenyl]-4-yl)-1,1,1,3,3,3-hexafluoropropan-2-ol], the “LXR activation, fold change over DMSO” value (LXR) was 4 fold change over DMSO, the “RORα repression, fold change over DMSO” value (RORα) was 0.4 fold change over DMSO and the “VP16 repression, fold change over DMSO” value (VP16) was 0.4 fold change over DMSO. The IC50 (GST-RORγ) was 1.1 µM and the “RORγ repression, fold change over DMSO” value (RORγ) was 0.05 fold change over DMSO.
In the case of `OC(c1ccc(-c2ccc(CN3CCN(Cc4cncs4)CC3)cc2)cc1)(C(F)(F)F)C(F)(F)F` [Compound 114, 1,1,1,3,3,3-Hexafluoro-2-(4′-((4-(thiazol-5-ylmethyl)piperazin-1-yl)methyl)-[1,1′-biphenyl]-4-yl)propan-2-ol], the “LXR activation, fold change over DMSO” value (LXR) is reported as 0.63 fold change over DMSO, the “RORα repression, fold change over DMSO” value (RORα) is reported as 0.79 fold change over DMSO and the “VP16 repression, fold change over DMSO” value (VP16) is reported as 0.92 fold change over DMSO. For the same molecule, the remaining activity at 10 µM (GST-RORγ) was 50% and the “RORγ repression, fold change over DMSO” value (RORγ) was 0.87 fold change over DMSO.
With `OC(c1ccc(-c2ccc(CN3CCN(C4CC4)CC3)cc2)cc1)(C(F)(F)F)C(F)(F)F` [Compound 17, 2-(4′-((4-Cyclopropylpiperazin-1-yl)methyl)-[1,1′-biphenyl]-4-yl)-1,1,1,3,3,3-hexafluoropropan-2-ol] the “LXR activation, fold change over DMSO” value (LXR) was 0.75 fold change over DMSO, the “RORα repression, fold change over DMSO” value (RORα) was 0.55 fold change over DMSO and the “VP16 repression, fold change over DMSO” value (VP16) was 0.4 fold change over DMSO. The remaining activity at 10 µM (GST-RORγ) was 20% and the “RORγ repression, fold change over DMSO” value (RORγ) was 0.25 fold change over DMSO.
`OC(c1ccc(-c2ccc(CN3CCN(Cc4ccncc4)CC3)c(F)c2)cc1)(C(F)(F)F)C(F)(F)F` [Compound 98, 1,1,1,3,3,3-Hexafluoro-2-(3′-fluoro-4′-((4-(pyridin-4-ylmethyl)piperazin-1-yl)methyl)-[1,1′-biphenyl]-4-yl)propan-2-ol] was tested, and the “LXR activation, fold change over DMSO” value (LXR) was 2 fold change over DMSO, the “RORα repression, fold change over DMSO” value (RORα) was 0.8 fold change over DMSO and the “VP16 repression, fold change over DMSO” value (VP16) was 0.65 fold change over DMSO. The IC50 (GST-RORγ) was 1.5 µM and the “RORγ repression, fold change over DMSO” value (RORγ) was 0.05 fold change over DMSO.
With `OC(c1ccc(-c2ccc(CN3CCN(Cc4cscn4)CC3)cc2)cc1)(C(F)(F)F)C(F)(F)F` [Compound 115, 1,1,1,3,3,3-Hexafluoro-2-(4′-((4-(thiazol-4-ylmethyl)piperazin-1-yl)methyl)-[1,1′-biphenyl]-4-yl)propan-2-ol] the “LXR activation, fold change over DMSO” value (LXR) was 0.76 fold change over DMSO, the “RORα repression, fold change over DMSO” value (RORα) was 0.61 fold change over DMSO and the “VP16 repression, fold change over DMSO” value (VP16) was 0.69 fold change over DMSO. The remaining activity at 10 µM (GST-RORγ) was 75% and the “RORγ repression, fold change over DMSO” value (RORγ) was 0.31 fold change over DMSO.
